Assay results from PubChem BioAssay (NCI).
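In this assay, cells in 96-well plates receive the compound at five concentrations for 48 hours. Endpoints are linearly interpolated between the surrounding concentrations. Abbreviation: GI50, concentration required for 50% inhibition of growth. TGI marks complete inhibition of growth.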

Experiments:
Assay in all cases: NCI anticancer screen, dose series, 48 h
SNB-75 CNS = test system: SNB-75 CNS
K-562 leukemia = test system: K-562 leukemia
HCT-15 colon = test system: HCT-15 colon
OVCAR-5 ovarian = test system: OVCAR-5 ovarian
OVCAR-8 ovarian = test system: OVCAR-8 ovarian
NCI-H226 lung = test system: NCI-H226 lung
M14 melanoma = test system: M14 melanoma
UACC-62 melanoma = test system: UACC-62 melanoma
SK-MEL-5 melanoma = test system: SK-MEL-5 melanoma
SF-268 CNS = test system: SF-268 CNS
RXF 393 renal = test system: RXF 393 renal
SN12C renal = test system: SN12C renal
A498 renal = test system: A498 renal
HS 578T breast = test system: HS 578T breast
MDA-MB-468 breast = test system: MDA-MB-468 breast
NCI-H460 lung = test system: NCI-H460 lung
UACC-257 melanoma = test system: UACC-257 melanoma
A549 NSCLC = test system: A549 NSCLC
MOLT-4 leukemia = test system: MOLT-4 leukemia
BT-549 breast = test system: BT-549 breast
COLO 205 colon = test system: COLO 205 colon
786-0 renal = test system: 786-0 renal
NCI-H23 lung = test system: NCI-H23 lung
HCC-2998 colon = test system: HCC-2998 colon
HOP-62 NSCLC = test system: HOP-62 NSCLC
MALME-3M melanoma = test system: MALME-3M melanoma
MDA-MB-435 = test system: MDA-MB-435
HCT-116 colon = test system: HCT-116 colon
SK-MEL-2 melanoma = test system: SK-MEL-2 melanoma
HOP-92 NSCLC = test system: HOP-92 NSCLC
SNB-19 CNS = test system: SNB-19 CNS
HL-60(TB) leukemia = test system: HL-60(TB) leukemia
SF-295 CNS = test system: SF-295 CNS
CAKI-1 renal = test system: CAKI-1 renal
TK-10 renal = test system: TK-10 renal
SF-539 CNS = test system: SF-539 CNS
OVCAR-4 ovarian = test system: OVCAR-4 ovarian
IGROV1 ovarian = test system: IGROV1 ovarian
HT29 colon = test system: HT29 colon
DU-145 prostate = test system: DU-145 prostate
SK-MEL-28 melanoma = test system: SK-MEL-28 melanoma
SK-OV-3 ovarian = test system: SK-OV-3 ovarian
OVCAR-3 ovarian = test system: OVCAR-3 ovarian
ACHN renal = test system: ACHN renal
T-47D breast = test system: T-47D breast
RPMI-8226 leukemia = test system: RPMI-8226 leukemia
EKVX NSCLC = test system: EKVX NSCLC
NCI/ADR-RES ovarian = test system: NCI/ADR-RES ovarian
SW-620 colon = test system: SW-620 colon
MCF7 breast = test system: MCF7 breast
U251 CNS = test system: U251 CNS
KM12 colon = test system: KM12 colon
PC-3 prostate = test system: PC-3 prostate
NCI-H522 lung = test system: NCI-H522 lung
LOX IMVI melanoma = test system: LOX IMVI melanoma

For `O=C(N/N=C/c1ccc(-c2cccc([N+](=O)[O-])c2)o1)c1[nH]c2ccc(Br)cc2c1-c1ccccc1`, the GI50 (SNB-75 CNS) was 4.56 µM, the TGI (SNB-75 CNS) was > 100 µM and the GI50 (K-562 leukemia) was 3.28 µM. For the same molecule, the TGI (K-562 leukemia) was > 100 µM, the GI50 (HCT-15 colon) was 3.59 µM and the TGI (HCT-15 colon) was > 100 µM. The GI50 (OVCAR-5 ovarian) was 3.84 µM, the TGI (OVCAR-5 ovarian) was > 100 µM and the GI50 (OVCAR-8 ovarian) was 2.44 µM. The TGI (OVCAR-8 ovarian) was 5.5 µM, the GI50 (NCI-H226 lung) was 23.5 µM and the TGI (NCI-H226 lung) was > 100 µM. For the same molecule, the GI50 (M14 melanoma) was 3.43 µM, the TGI (M14 melanoma) was > 100 µM and the GI50 (UACC-62 melanoma) was 4.46 µM. For the same molecule, the TGI (UACC-62 melanoma) was > 100 µM, the GI50 (SK-MEL-5 melanoma) was 2.22 µM and the TGI (SK-MEL-5 melanoma) was 5.34 µM. For the same molecule, the GI50 (SF-268 CNS) was 5.55 µM, the TGI (SF-268 CNS) was > 100 µM and the GI50 (RXF 393 renal) was 2.65 µM. For the same molecule, the TGI (RXF 393 renal) was 7.45 µM, the GI50 (SN12C renal) was 3.99 µM and the TGI (SN12C renal) was > 100 µM. For the same molecule, the GI50 (A498 renal) was > 100 µM, the TGI (A498 renal) was > 100 µM and the GI50 (HS 578T breast) was 4.26 µM. The TGI (HS 578T breast) was > 100 µM, the GI50 (MDA-MB-468 breast) was 2.28 µM and the TGI (MDA-MB-468 breast) was 6 µM. The GI50 (NCI-H460 lung) was 3.49 µM, the TGI (NCI-H460 lung) was > 100 µM and the GI50 (UACC-257 melanoma) was 5.79 µM. The TGI (UACC-257 melanoma) was > 100 µM, the GI50 (A549 NSCLC) was 3.66 µM and the TGI (A549 NSCLC) was > 100 µM. For the same molecule, the GI50 (MOLT-4 leukemia) was 3.45 µM, the TGI (MOLT-4 leukemia) was > 100 µM and the GI50 (BT-549 breast) was 2.16 µM. The TGI (BT-549 breast) was 6.28 µM, the GI50 (COLO 205 colon) was 2.75 µM and the TGI (COLO 205 colon) was 7.49 µM. For the same molecule, the GI50 (786-0 renal) was 2.75 µM, the TGI (786-0 renal) was 13.3 µM and the GI50 (NCI-H23 lung) was 4.87 µM. The TGI (NCI-H23 lung) was > 100 µM, the GI50 (HCC-2998 colon) was 4.63 µM and the TGI (HCC-2998 colon) was > 100 µM. For the same molecule, the GI50 (HOP-62 NSCLC) was 3.49 µM, the TGI (HOP-62 NSCLC) was > 100 µM and the GI50 (MALME-3M melanoma) was 3.77 µM. The TGI (MALME-3M melanoma) was > 100 µM, the GI50 (MDA-MB-435) was 3.2 µM and the TGI (MDA-MB-435) was > 100 µM. The GI50 (HCT-116 colon) was 3.04 µM, the TGI (HCT-116 colon) was 10.4 µM and the GI50 (SK-MEL-2 melanoma) was 2.68 µM. For the same molecule, the TGI (SK-MEL-2 melanoma) was 8.93 µM, the GI50 (HOP-92 NSCLC) was 46.1 µM and the TGI (HOP-92 NSCLC) was > 100 µM. For the same molecule, the GI50 (SNB-19 CNS) was 3.48 µM, the TGI (SNB-19 CNS) was > 100 µM and the GI50 (HL-60(TB) leukemia) was 1.94 µM. The TGI (HL-60(TB) leukemia) was 5.32 µM, the GI50 (SF-295 CNS) was 3.17 µM and the TGI (SF-295 CNS) was > 100 µM. For the same molecule, the GI50 (CAKI-1 renal) was 30.9 µM, the TGI (CAKI-1 renal) was > 100 µM and the GI50 (TK-10 renal) was > 100 µM. The TGI (TK-10 renal) was > 100 µM, the GI50 (SF-539 CNS) was 2.34 µM and the TGI (SF-539 CNS) was 5.81 µM. The GI50 (OVCAR-4 ovarian) was > 100 µM, the TGI (OVCAR-4 ovarian) was > 100 µM and the GI50 (IGROV1 ovarian) was 4.33 µM. For the same molecule, the TGI (IGROV1 ovarian) was > 100 µM, the GI50 (HT29 colon) was 2.58 µM and the TGI (HT29 colon) was 6.97 µM. The GI50 (DU-145 prostate) was 4.2 µM, the TGI (DU-145 prostate) was > 100 µM and the GI50 (SK-MEL-28 melanoma) was 6.75 µM. For the same molecule, the TGI (SK-MEL-28 melanoma) was > 100 µM, the GI50 (SK-OV-3 ovarian) was 3.61 µM and the TGI (SK-OV-3 ovarian) was > 100 µM. The GI50 (OVCAR-3 ovarian) was 3.47 µM, the TGI (OVCAR-3 ovarian) was > 100 µM and the GI50 (ACHN renal) was 4.76 µM. The TGI (ACHN renal) was > 100 µM, the GI50 (T-47D breast) was > 100 µM and the TGI (T-47D breast) was > 100 µM. For the same molecule, the GI50 (RPMI-8226 leukemia) was 3.31 µM, the TGI (RPMI-8226 leukemia) was > 100 µM and the GI50 (EKVX NSCLC) was 5.74 µM. For the same molecule, the TGI (EKVX NSCLC) was > 100 µM, the GI50 (NCI/ADR-RES ovarian) was 2.53 µM and the TGI (NCI/ADR-RES ovarian) was 6.49 µM. The GI50 (SW-620 colon) was 4.5 µM, the TGI (SW-620 colon) was > 100 µM and the GI50 (MCF7 breast) was 3.56 µM. The TGI (MCF7 breast) was > 100 µM, the GI50 (U251 CNS) was 3.34 µM and the TGI (U251 CNS) was > 100 µM. For the same molecule, the GI50 (KM12 colon) was 3.75 µM, the TGI (KM12 colon) was > 100 µM and the GI50 (PC-3 prostate) was 4.28 µM. For the same molecule, the TGI (PC-3 prostate) was > 100 µM, the GI50 (NCI-H522 lung) was 1.73 µM and the TGI (NCI-H522 lung) was 3.98 µM. For the same molecule, the GI50 (LOX IMVI melanoma) was 3.71 µM and the TGI (LOX IMVI melanoma) was > 100 µM.
